What was measured:
[1] = test system: SK-MEL-28; test: NCI in vitro cytotoxicity (SRB); type: cell-based; details: Homo sapiens; Melanoma SK-MEL-28; 48 h exposure
[2] = test system: KM12; test: NCI in vitro cytotoxicity (SRB); type: cell-based; details: Homo sapiens; Colon KM12; 48 h exposure
[3] = test system: NCI-H460; test: NCI in vitro cytotoxicity (SRB); type: cell-based; details: Homo sapiens; Non-smallcell lung NCI-H460; 48 h exposure
[4] = test system: calf thymus DNA (CT-DNA); test: Thermal denaturation studies with duplex-form calf thymus DNA; type: binding; details: [PBD]:[DNA] 1:5, CT-DNA 100 μM, ligand 20 μM, pH 7.00; for ΔTm after incubation at 37° C. for 0 h: 0 h at 37° C.; for ΔTm after incubation at 37° C. for 18 h: 18 h at 37° C.
Method: Compounds have been subjected to thermal denaturation studies with duplex-form calf thymus DNA (CT-DNA) using an modification of a reported procedure (Newman, M. S. Carcinog-compr. Surv. 1976, 1, 203; (b) Hecht, S. S.; Loy, M.; Hoffman, Carcinog-compr. Surv. 1976, 1, 325). Working solutions in aqueous buffer (10 mM NaH2PO4/Na2HPO4, 1 mM Na2EDTA, pH 7.00+0.01) containing CT-DNA (100 μm in phosphate) and the PBD (20 μm) have been prepared by addition of concentrated PBD solutions in DMSO to obtain a fixed [PBD]/[DNA] molar ratio of 1:5. The DNA−PBD solutions have been incubated at 37° C. for 0 and 18 h prior to analysis. Samples have been monitored at 260 nm using a Beckman DU-800 spectrophotometer fitted with high performance temperature controller, and heated at 1° C. min^−1
in the 40-110° C. range. DNA helix[…]coil transition temperatures (Tm) have been obtained from the maxima in the d(A260)/dT derivative plots. Drug-induced alterations in DNA melting behavior are given by: ΔTm=Tm(DNA+PBD)−Tm (DNA alone), where the Tm value for the PBD-free CT-DNA is 69.1±0.01.

[5] = test system: A549/ATCC; test: NCI in vitro cytotoxicity (SRB); type: cell-based; details: Homo sapiens; Non-smallcell lung A549/ATCC; 48 h exposure
[6] = test system: BT-549; test: NCI in vitro cytotoxicity (SRB); type: cell-based; details: Homo sapiens; Breast BT-549; 48 h exposure
[7] = test system: MDA-MB-; test: NCI in vitro cytotoxicity (SRB); type: cell-based; details: Homo sapiens; Breast MDA-MB-; 48 h exposure
[8] = test system: UACC-257; test: NCI in vitro cytotoxicity (SRB); type: cell-based; details: Homo sapiens; Melanoma UACC-257; 48 h exposure
[9] = test system: OVCAR-8; test: NCI in vitro cytotoxicity (SRB); type: cell-based; details: Homo sapiens
[10] = test system: NCI-H23; test: NCI in vitro cytotoxicity (SRB); type: cell-based; details: Homo sapiens; Non-smallcell lung NCI-H23; 48 h exposure
[11] = test system: OVCAR-4; test: NCI in vitro cytotoxicity (SRB); type: cell-based; details: Homo sapiens; Ovarian OVCAR-4; 48 h exposure
[12] = test system: SN12C; test: NCI in vitro cytotoxicity (SRB); type: cell-based; details: Homo sapiens; Renal SN12C; 48 h exposure
[13] = test system: SF-539; test: NCI in vitro cytotoxicity (SRB); type: cell-based; details: Homo sapiens; CNS SF-539; 48 h exposure
[14] = test system: MDA-MB-435; test: NCI in vitro cytotoxicity (SRB); type: cell-based; details: Homo sapiens; Breast MDA-MB-435; 48 h exposure
[15] = test system: COLO 205; test: NCI in vitro cytotoxicity (SRB); type: cell-based; details: Homo sapiens; Colon COLO 205; 48 h exposure
[16] = test system: MCF7; test: NCI in vitro cytotoxicity (SRB); type: cell-based; details: Homo sapiens
[17] = test system: A498; test: NCI in vitro cytotoxicity (SRB); type: cell-based; details: Homo sapiens; Renal A498; 48 h exposure
[18] = test system: HCC-2998; test: NCI in vitro cytotoxicity (SRB); type: cell-based; details: Homo sapiens; Colon HCC-2998; 48 h exposure
[19] = test system: Renal panel; test: NCI screen, panel average; type: cell-based, human; details: for LC50 (concentration causing 50% lethality): Homo sapiens, read-out: Log10 LC50 (concentration in mol/L causing 50% lethality) (converted); for Log10 GI50 (concentration in mol/L): Renal, average of six to eight cell lines
[20] = test system: TK-10; test: NCI in vitro cytotoxicity (SRB); type: cell-based; details: Homo sapiens; Renal TK-10; 48 h exposure
[21] = test system: CAKI-1; test: NCI in vitro cytotoxicity (SRB); type: cell-based; details: Homo sapiens; Renal CAKI-1; 48 h exposure
[22] = test system: Leukemia panel; test: NCI screen, panel average; type: cell-based, human; details: for LC50 (50% lethal concentration): Homo sapiens, read-out: Log10 LC50 (concentration in mol/L causing 50% lethality) (converted); for Log10 GI50 (concentration in mol/L): Leukemia, average of six to eight cell lines
[23] = test system: Non-small-cell-lung panel; test: NCI screen, panel average; type: cell-based, human; details: for LC50: Homo sapiens, read-out: Log10 LC50 (concentration in mol/L causing 50% lethality) (converted); for Log10 GI50 (concentration in mol/L): Non-small-cell-lung, average of six to eight cell lines
[24] = test system: 786-0; test: NCI in vitro cytotoxicity (SRB); type: cell-based; details: Homo sapiens; Renal 786-0; 48 h exposure
[25] = test system: OVCAR-5; test: NCI in vitro cytotoxicity (SRB); type: cell-based; details: Homo sapiens; Ovarian OVCAR-5; 48 h exposure
[26] = test system: CNS panel; test: NCI screen, panel average; type: cell-based, human; details: for Log10 GI50 (concentration in mol/L): CNS, average of six to eight cell lines; for LC50: Homo sapiens, read-out: Log10 LC50 (concentration in mol/L causing 50% lethality) (converted)
[27] = test system: RXF 393; test: NCI in vitro cytotoxicity (SRB); type: cell-based; details: Homo sapiens; Renal RXF 393; 48 h exposure
[28] = test system: MALME-3M; test: NCI in vitro cytotoxicity (SRB); type: cell-based; details: Homo sapiens
[29] = test system: Melanoma panel; test: NCI screen, panel average; type: cell-based, human; details: for LC50: Homo sapiens, read-out: Log10 LC50 (concentration in mol/L causing 50% lethality) (converted); for Log10 GI50 (concentration in mol/L): Melanoma, average of six to eight cell lines
[30] = test system: Prostate panel; test: NCI screen, panel average; type: cell-based, human; details: for CC50: Homo sapiens, read-out: Log10 LC50 (concentration in mol/L causing 50% lethality) (converted); for Log10 GI50 (concentration in mol/L): Prostate, average of six to eight cell lines
[31] = test system: NCI-H226; test: NCI in vitro cytotoxicity (SRB); type: cell-based; details: Homo sapiens; Non-smallcell lung NCI-H226; 48 h exposure
[32] = test system: Liver HEP-2; details: human
[33] = test system: Neuroblastoma IMR-32; details: human
[34] = Melanoma MALME-3M, 48 h exposure

COc1cc2c(cc1OCCCN1CCN(C(=S)SCCC(C#N)(c3ccccc3)c3ccccc3)CC1)N=C[C@@H]1CCCN1C2=O [Compound 12b, 3-cyano-3,3-diphenylpropyl 4-(3-[(11aS)-7-(methyloxy)-5-oxo-2,3,5,11a-tetrahydro-1H-benzo[e]pyrrolo[1,2-a][1,4]diazepin-8-yl]oxypropyl)hexahydro-1-pyrazinecarbodithioate]
GI50 [1]: 1520 nM
GI50 [2]: 1070 nM
GI50 [3]: 770 nM
ΔTm after incubation at 37° C. for 0 h [4]: 2.0 °C
ΔTm after incubation at 37° C. for 18 h [4]: 4.0 °C
GI50 [5]: 1220 nM
GI50 [6]: 920 nM
GI50 [7]: 1410 nM
GI50 [8]: 2000 nM
GI50 ([9]; Ovarian OVCAR-8, 48 h exposure): 990 nM
GI50 ([9]; ovarian OVCAR-8): 990 nM
GI50 [10]: 1400 nM
GI50 [11]: 2110 nM
GI50 [12]: 640 nM
GI50 [13]: 1440 nM
GI50 [14]: 550 nM
GI50 [15]: 1300 nM
GI50 ([16]; MCF7, breast MCF-7): 330 nM
GI50 ([16]; Breast MCF7, 48 h exposure): 330 nM
GI50 [17]: 910 nM
GI50 [18]: 1640 nM
LC50 (concentration causing 50% lethality) [19]: 4070 nM
Log10 GI50 (concentration in mol/L) [19]: −6.20 mol/L
GI50 [20]: 650 nM
GI50 [21]: 300 nM
LC50 (50% lethal concentration) [22]: 55000 nM
Log10 GI50 (concentration in mol/L) [22]: −6.63 mol/L
LC50 [23]: 11000 nM
Log10 GI50 (concentration in mol/L) [23]: −6.07 mol/L
GI50 [24]: 1060 nM
GI50 [25]: 1350 nM
Log10 GI50 (concentration in mol/L) [26]: −6.12 mol/L
LC50 [26]: 4470 nM
GI50 [27]: 190 nM
GI50 [28, 34]: 930 nM
GI50 ([28]; melanoma MALME-3M): 930 nM
LC50 [29]: 5500 nM
Log10 GI50 (concentration in mol/L) [29]: −5.94 mol/L
CC50 [30]: 2400 nM
Log10 GI50 (concentration in mol/L) [30]: −6.51 mol/L
GI50 [31]: 1510 nM

COc1cc2c(cc1OCCCCN1CCN(C(=S)SCCC(C#N)(c3ccccc3)c3ccccc3)CC1)N=C[C@@H]1CCCN1C2=O [Compound 12c, 3-cyano-3,3-diphenylpropyl 4-(4-[(11aS)-7-(methyloxy)-5-oxo-2,3,5,11a-tetrahydro-1H-benzo[e]pyrrolo[1,2-a][1,4]diazepin-8-yl]oxybutyl)hexahydro-1-pyrazinecarbodithioate]
GI50 [1]: 1750 nM
GI50 [2]: 1390 nM
GI50 [3]: 1250 nM
ΔTm after incubation at 37° C. for 0 h [4]: 2.0 °C
ΔTm after incubation at 37° C. for 18 h [4]: 2.1 °C
GI50 [5]: 1610 nM
GI50 [6]: 1420 nM
GI50 [7]: 1530 nM
GI50 [8]: 1970 nM
GI50 ([9]; Ovarian OVCAR-8, 48 h exposure): 1590 nM
Preliminary in vitro cytotoxicity data [32]: 69%
GI50 [10]: 1680 nM
GI50 [11]: 1820 nM
GI50 [12]: 1160 nM
GI50 [13]: 1690 nM
GI50 [14]: 1040 nM
GI50 [15]: 1400 nM
GI50 ([16]; Breast MCF7, 48 h exposure): 430 nM
GI50 [17]: 1190 nM
GI50 [18]: 1570 nM
LC50 (concentration causing 50% lethality) [19]: 15100 nM
Log10 GI50 (concentration in mol/L) [19]: −6.05 mol/L
GI50 [20]: 1260 nM
GI50 [21]: 590 nM
LC50 (50% lethal concentration) [22]: 100000 nM
Log10 GI50 (concentration in mol/L) [22]: −6.26 mol/L
LC50 [23]: 38900 nM
Log10 GI50 (concentration in mol/L) [23]: −5.97 mol/L
GI50 [24]: 1280 nM
GI50 [25]: 2470 nM
Preliminary in vitro cytotoxicity data [33]: 88
Log10 GI50 (concentration in mol/L) [26]: −5.84 mol/L
LC50 [26]: 7590 nM
GI50 [27]: 410 nM
GI50 [28, 34]: 1360 nM
LC50 [29]: 7410 nM
Log10 GI50 (concentration in mol/L) [29]: −5.90 mol/L
CC50 [30]: 7240 nM
Log10 GI50 (concentration in mol/L) [30]: −5.99 mol/L
GI50 [31]: 1260 nM

From US8592407B2, “Pyrrolo[2,1-c][1,4] benzodiazepine derivatives with dithiocarbamate side chains and process for the preparation thereof” (Council of Scientific & Industrial Research, priority 2008, dated 2013)
